# Data from patent US8563706B2, “Efficient cell culture system for hepatitis C virus genotype 1A and 1B” (priority 2007, dated 2013).
# Tests used:
# [1] = tested on: JFH1-based recombinants of genotypes 1a, 1b, 2a, 2b, and 6a; type: cell-based, hepatitis C virus
# [2] = tested on: JFH1 cultures or cultures with genotype 1a (H77), 1b (Con1) or 2a (J6) JFH1-based recombinants; details: previous studies; cited from earlier work
# [3] = tested on: J6/JFH; details: previous studies; cited from earlier work
Compound,effect of treatment on infected cells and supernatant HCV RNA titers (in words) [1],production of infectious virus (in words) [2],replication of J6/JFH (in words) [3],decrease in supernatant HCV RNA titers [1] [log],decrease in the number of infected cells [1] [%]
NC12CC3CC(CC(C3)C1)C2 [amantadine],no apparent effect,did not decrease production of infectious virus,–,–,–
interferon-α2b,–,–,decreased replication,~2,> 60
NC(=O)c1ncn([C@@H]2O[C@H](CO)[C@@H](O)[C@H]2O)n1 [ribavirin],no apparent effect,did not decrease production of infectious virus,–,–,–
